Results as given in patent US7381744B1, “Method of treating osteoporosis comprising vacuolar-type (H+)-ATPase-inhibiting compounds” (The United States of America as represented by the …, priority 1999, dated 2008).
pIC50: −log10 of the molar value.

Key:
[1] = tested on: vacuolar-type (H+)-ATPase derived from human kidney cells (hK); assay: vacuolar-type (H+)-ATPase inhibition assay, membrane vesicles (hK); type: biochemical; details: bafilomycin-sensitive activity; oligomycin 5 μg/ml and vanadate 1 mM present; 37°, 30 minutes
Method: (§1) Inhibition of bafilomycin-sensitive vacuolar-type (H+)-ATPase activity was measured in partially purified membrane vesicle preparations from human osteoclastoma cells (hOc), human renal cortical cells (hK), and macrophage cells (J774). The vesicles were prepared by appropriate adaptations of methods described in Gagliardi et al., J. Med. Chem., 41, 1568-1573 (1998); and Gagliardi et al., J. Med. Chem., 41, 1883-1893 (1998).
(§2) Vacuolar-type (H+)-ATPase assays were performed in the presence of oligomycin (5 μg/ml) and vanadate (1 mM) as inhibitors of F- and P-ATPases, respectively. A […] method was used to quantitate the residual bafilomycin-sensitive vacuolar-type (H+)-ATPase activity (see Chan et al., Anal. Biochem., 157, 375-380 (1986)). The assay measures the release of inorganic phosphate from ATP at 37° during 30 minutes of incubation. The reaction is initiated by the addition of MgSO4 ([…]).

[2] = stability in solvents observed during isolation and NMR; type: physicochemical; details: deuterated chloroform
Source text: Therefore, all subsequent attempts at isolation avoided the use of chloroform or exposure of samples to CDCl3, and no further problems with decomposition or loss of bioactivity were encountered. Moreover, there was no indication of any instability of the pure isolated compounds in any of the other common organic solvents employed, nor in aqueous or biological media.
Signals obscured by or unresolved in the first solvent were readily discernible in the second. Consequently, ^1H-^1H COSY, HMQC, and HMBC NMR data were gathered in both solvents. […] From a combination of the HMQC (Table 2) and the COSY spectral data, the partial structures illustrated in FIGS. 5A-5C were generated.

[3] = tested on: fungal vacuolar-type (H+)-ATPase (from Neurospora crassa); assay: fungal vacuolar-type (H+)-ATPase inhibition, side-by-side test; type: biochemical
Source text: The inhibitory data were obtained using the same procedures and biological preparations described in Bowman et al., Proc. Natl. Acad. Sci. USA, 85, 7972-7976 (November 1988).

[4] = tested on: vacuolar-type (H+)-ATPase derived from macrophage cells (J774); assay: vacuolar-type (H+)-ATPase inhibition assay, membrane vesicles (J774); type: biochemical; details: bafilomycin-sensitive activity; oligomycin 5 μg/ml and vanadate 1 mM present; 37°, 30 minutes
Method: as §1, §2

[5] = tested on: OVCAR-8; assay: NCI 60 cell-line screen; type: cell-based; details: Homo sapiens, Ovary, averaged, quadruplicate testing, read-out: negative log10 GI50 (converted)
Source text: (§3) It is the concentration where 100×(T−To)/To=−50=PG. […] Res., 34, 91-109 (1995).

[6] = tested on: HCT-116; assay: NCI 60 cell-line screen; type: cell-based; details: Homo sapiens, Colon, averaged, quadruplicate testing, read-out: negative log10 GI50 (converted)
Source text: as §3

[7] = tested on: RXF-393; assay: NCI 60 cell-line screen; type: cell-based; details: Homo sapiens, Kidney, averaged, quadruplicate testing, read-out: negative log10 GI50 (converted)
Source text: as §3

[8] = tested on: MOLT-4; assay: NCI 60 cell-line screen; type: cell-based; details: Homo sapiens, Leukemia, averaged, quadruplicate testing, read-out: negative log10 GI50 (converted)
Source text: as §3

[9] = tested on: T-47D; assay: NCI 60 cell-line screen; type: cell-based; details: Homo sapiens, T47D, Breast, averaged, quadruplicate testing, read-out: negative log10 GI50 (converted)
Source text: as §3

[10] = tested on: NCI-H23; assay: NCI 60 cell-line screen; type: cell-based; details: Homo sapiens, Lung, averaged, quadruplicate testing, read-out: negative log10 GI50 (converted)
Source text: as §3

[11] = tested on: MDA-N; assay: NCI 60 cell-line screen; type: cell-based; details: Homo sapiens, Breast, averaged, quadruplicate testing, read-out: negative log10 GI50 (converted)
Source text: as §3

[12] = tested on: OVCAR-4; assay: NCI 60 cell-line screen; type: cell-based; details: Homo sapiens, Ovary, averaged, quadruplicate testing, read-out: negative log10 GI50 (converted)
Source text: as §3

[13] = tested on: ACHN; assay: NCI 60 cell-line screen; type: cell-based; details: Homo sapiens, Kidney, averaged, quadruplicate testing, read-out: negative log10 GI50 (converted)
Source text: as §3

[14] = tested on: MDA-MB-231/ATCC; assay: NCI 60 cell-line screen; type: cell-based; details: Homo sapiens, Breast, averaged, quadruplicate testing, read-out: negative log10 GI50 (converted)
Source text: as §3

[15] = tested on: K-562; assay: NCI 60 cell-line screen; type: cell-based; details: Homo sapiens, K562, Leukemia, averaged, quadruplicate testing, read-out: negative log10 GI50 (converted)
Source text: as §3

[16] = tested on: MCF-7; assay: NCI 60 cell-line screen; type: cell-based; details: Homo sapiens, MCF7, Breast, averaged, quadruplicate testing, read-out: negative log10 GI50 (converted)
Source text: as §3

[17] = tested on: SW-620; assay: NCI 60 cell-line screen; type: cell-based; details: Homo sapiens, Colon, averaged, quadruplicate testing, read-out: negative log10 GI50 (converted)
Source text: as §3

[18] = tested on: CAKI-1; assay: NCI 60 cell-line screen; type: cell-based; details: Homo sapiens, Kidney, averaged, quadruplicate testing, read-out: negative log10 GI50 (converted)
Source text: as §3

[19] = tested on: IGROV1; assay: NCI 60 cell-line screen; type: cell-based; details: Homo sapiens, IGROV-1, Ovary, averaged, quadruplicate testing, read-out: negative log10 GI50 (converted)
Source text: as §3

[20] = tested on: HCC-2998; assay: NCI 60 cell-line screen; type: cell-based; details: Homo sapiens, Colon, averaged, quadruplicate testing, read-out: negative log10 GI50 (converted)
Source text: as §3

[21] = tested on: UACC-257; assay: NCI 60 cell-line screen; type: cell-based; details: Homo sapiens, Melanoma, averaged, quadruplicate testing, read-out: negative log10 GI50 (converted)
Source text: as §3

[22] = tested on: M14; assay: NCI 60 cell-line screen; type: cell-based; details: Homo sapiens, Melanoma, averaged, quadruplicate testing, read-out: negative log10 GI50 (converted)
Source text: as §3

[23] = tested on: HL-60-TB; assay: NCI 60 cell-line screen; type: cell-based; details: Homo sapiens, HL-60, read-out: negative log10 GI50 (converted)
Source text: as §3

[24] = tested on: DU-145; assay: NCI 60 cell-line screen; type: cell-based; details: Homo sapiens, Prostate, averaged, quadruplicate testing, read-out: negative log10 GI50 (converted)
Source text: as §3

[25] = tested on: BT-549; assay: NCI 60 cell-line screen; type: cell-based; details: Homo sapiens, Breast, averaged, quadruplicate testing, read-out: negative log10 GI50 (converted)
Source text: as §3

[26] = tested on: SK-OV-3; assay: NCI 60 cell-line screen; type: cell-based; details: Homo sapiens, Ovary, averaged, quadruplicate testing, read-out: negative log10 GI50 (converted)
Source text: as §3

[27] = tested on: SK-MEL-2; assay: NCI 60 cell-line screen; type: cell-based; details: Homo sapiens, Melanoma, averaged, quadruplicate testing, read-out: negative log10 GI50 (converted)
Source text: as §3

[28] = tested on: NCI-H522; assay: NCI 60 cell-line screen; type: cell-based; details: Homo sapiens, Lung, averaged, quadruplicate testing, read-out: negative log10 GI50 (converted)
Source text: as §3

[29] = tested on: PC-3; assay: NCI 60 cell-line screen; type: cell-based; details: Homo sapiens, Prostate, averaged, quadruplicate testing, read-out: negative log10 GI50 (converted)
Source text: as §3

[30] = tested on: SF-295; assay: NCI 60 cell-line screen; type: cell-based; details: Homo sapiens, Brain, averaged, quadruplicate testing, read-out: negative log10 GI50 (converted)
Source text: as §3

[31] = tested on: HT29; assay: NCI 60 cell-line screen; type: cell-based; details: Homo sapiens, HT-29, Colon, averaged, quadruplicate testing, read-out: negative log10 GI50 (converted)
Source text: as §3

[32] = tested on: SR; assay: NCI 60 cell-line screen; type: cell-based; details: Homo sapiens, Leukemia, averaged, quadruplicate testing, read-out: negative log10 GI50 (converted)
Source text: as §3

CC/C=C\C=C/C(=O)N/C=C/CC1CC(O)C(C)C/C=C/Cc2cccc(O)c2C(=O)O1 (centres unmarked) [salicylihalamide A]
pIC50 [1]: 9.52 | stability in CDCl3 [2]: sensitivity of salicylihalamide A to CDCl3 | inhibitory activity against fungal vacuolar-type (H+)-ATPase [3]: little or no inhibitory activity | pIC50 [4]: 8.55 | GI50 [5]: 3.72 nM | GI50 [6]: 1.82 nM | GI50 [7]: 0.851 nM | GI50 [8]: 11 nM | GI50 [9]: 4.57 nM | GI50 [10]: 282 nM | GI50 [11]: 10 nM | GI50 [12]: 5010 nM | GI50 [13]: 9.77 nM | GI50 [14]: 120 nM | GI50 [15]: 3.89 nM | GI50 [16]: 75.9 nM | GI50 [17]: 28.8 nM | GI50 [18]: 1.1 nM | GI50 [19]: 12.9 nM | GI50 [20]: 182 nM | GI50 [21]: 3.39 nM | GI50 [22]: 1.2 nM | GI50 [23]: 0.912 nM | GI50 [24]: 5.5 nM | GI50 [25]: 0.501 nM | GI50 [26]: 2880 nM | GI50 [27]: 33.9 nM | GI50 [28]: 55 nM | GI50 [29]: 30.9 nM | GI50 [30]: 1.1 nM | GI50 [31]: 2.88 nM | GI50 [32]: 3.63 nM
